A short description of the data set: Human HepG2 cell viability assay in 384 well format. The data set is classed as toxicity, cell-based. Also on record: dose 125 nL, time 70.5 hour; cytotoxicity at 70.5 h: concentration not given beside the values. The following applies: HepG2 cells, read-out: Inhibition.
`COCCNC(=O)c1cnc(N(C)C)nc1C`: the cytotoxicity at 70.5 h was -5.03%.

Consider `Cc1c(-c2cnn(C)c2)nc(N)c(C#N)c1-c1ccc(CO)o1`, for which the cytotoxicity at 70.5 h came out at 2.44%. The value for `CCOC(=O)CSc1nnc([C@@H](N)C(C)C)o1` was -7.09%; that for `Cn1cc(CN2CCC[C@]3(C[C@@H](Oc4ccccn4)CO3)C2)cn1` was -6.69%; that for `Cn1ccc(C(=O)N2CCOC(c3ccccc3)C2)cc1=O` (configuration not stated) was -7.42%. Consider `Fc1cnc(N2CCC3(CC2)CN(Cc2ccccn2)CCO3)nc1`, for which the cytotoxicity at 70.5 h stood at 5.75%. Regarding `N#Cc1cc(NC(=O)c2ccncc2)ccc1N1CCC(O)CC1`, the cytotoxicity at 70.5 h was -3.68%. The value for `CCS(=O)(=O)N1CCCC(c2nccn2Cc2ccccn2)C1` (configuration not stated) was -2.1%; that for `CC(=O)NC1CCCN(C(=O)NCCOc2ccc3c(c2)OCO3)C1` (configuration not stated) was -10.3%; that for `O=C(CC(F)(F)F)N1C[C@H]2CN(CC3CC3)C(=O)[C@H]2C1` was -5.1%. Turning to `O=C(Cn1cccn1)NCC(c1cccs1)N1CCCC1` (configuration not stated), the cytotoxicity at 70.5 h is -11.9%.

Regarding `CCN(Cc1ccncc1)Cc1cn(-c2ccccc2)nn1`, the cytotoxicity at 70.5 h was -10.2%.

`CC(C)=CCN1C(=O)[C@H]2CC[C@@H]1CN(c1ncccn1)C2`: the cytotoxicity at 70.5 h is -21%. On to `CCOCCCC(=O)N1CCN(C(=O)Cc2cccc(OC)c2)CC1`, for which the cytotoxicity at 70.5 h is -5.09%. On to `Fc1ccc(F)c(CN2CCC(c3cc4ncccc4cn3)CC2)c1`, for which the cytotoxicity at 70.5 h came out at 4.59%. The same measure for `CN1CCOCC12CCN(c1nncs1)CC2`: -2.11%; for `CN(C(=O)CNC(=O)CC(C)(C)C)C1CCN(c2ccccn2)CC1`: -6.78%.

For `CC(C)c1nc(CN(C)C(=O)CNS(=O)(=O)c2cccs2)no1`, the cytotoxicity at 70.5 h was found to be 46.6%. The same measure for `O=C1COc2cccc(OCc3ccccn3)c2N1`: -0.596%; for `Cc1nnc(NC(=O)NCC(C)N2CCOCC2)s1` (configuration not stated): -11%. The value for `Cc1ccc(C(=O)N2CC[C@H](N3CCOCC3)[C@H](CCCO)C2)cc1O` was -8.22%; that for `CC(C)c1nnc(NCc2cc3n(n2)CCNC3)s1` was -8.56%. For `COc1ccc(C2CC(=O)Nc3nc(N4CCOCC4)sc32)c(OC)c1` (configuration not stated), the cytotoxicity at 70.5 h was -21.3%. Regarding `O=C(CCN1CCSCC1c1ccccc1)N1CCOCC1` (configuration not stated), the cytotoxicity at 70.5 h came out at 7.46%.

`COCCN1CCOCC12CCN(c1ccc(C#N)cc1)CC2`: the cytotoxicity at 70.5 h was -0.11%.

Consider `C[C@@H]1CN(C(=O)Cn2ccc3ncccc3c2=O)C[C@H](C)O1`, for which the cytotoxicity at 70.5 h is -5.8%. With `Cc1oncc1C(=O)N1CCC2(CC1)CC(N1CCOCC1)C2`, the cytotoxicity at 70.5 h was -11.3%. The same measure for `CCCC(=O)N1CCCC(Cn2cc(-c3ccc(F)cc3)nn2)C1` (configuration not stated): -11.1%; for `CC(NCc1cccc(C#N)c1)c1ccccn1` (configuration not stated): -6.12%. Take `O=C([C@H]1CCCO1)N1CCc2ncc(CN3CCOCC3)n2CC1`: the cytotoxicity at 70.5 h is -11.9%. The same measure for `O=C(c1cncs1)N1CCc2[nH]nc(Nc3ccccc3)c2C1`: -3.16%; for `CCSCCC(=O)Nc1ncn(Cc2ccccc2)n1`: -14.4%. Regarding `CC(C)Nc1nc2c(cc1C(=O)NCC1CC1)CCN(C)CC2`, the cytotoxicity at 70.5 h was -8.36%. The value for `Cc1ccc(CN2Cc3c(C(=O)N4CCCC4)nn(C)c3C2)s1` was 22.4%. The value for `CS(=O)(=O)N1CCCCC12CCCN(Cc1nccs1)C2` (configuration not stated) was 11.6%. `O=C(CCNC(=O)c1ccoc1)Nc1c(F)cccc1F`: the cytotoxicity at 70.5 h was -1.23%. The value for `CCc1oc(C(=O)N(C)Cc2nonc2C)cc1CN(CC)CC` was -16.6%; that for `COCCN(Cc1sccc1C)c1nc(C)nc2sccc12` was -3.07%.

Regarding `Cn1nc(-c2ccc(Cl)cc2)c(Br)c1C(=O)O`, the cytotoxicity at 70.5 h is -23.3%.

As to `CC(C)NC(=O)N1CC[C@H]2[C@H]1CCN2c1ncccn1`, the cytotoxicity at 70.5 h is -5.58%.

On to `Cn1nc(C2CCCN(Cc3cc(F)ccc3F)C2)c2nccnc21` (configuration not stated), for which the cytotoxicity at 70.5 h is -2.84%. For `COc1ccc(S(=O)(=O)NCCCc2ccc(N(C)C)cc2)cc1Cl`, the cytotoxicity at 70.5 h is -3.09%. In the case of `OC1(CN2CCCC2)COCCN(c2nnc(-c3ccccc3)s2)C1` (configuration not stated), the cytotoxicity at 70.5 h was 15.8%.

Turning to `CS(=O)(=O)NCc1ccc2c(c1)CCC2`, the cytotoxicity at 70.5 h was -7.69%. Consider `O=C(Nc1ccccc1)N1C[C@H]2CC[C@@H]1CN(Cc1ccccc1)C2`, for which the cytotoxicity at 70.5 h is -4.8%. With `Cc1ccoc1C(=O)N1CC[C@@H]2CN(C3CCOCC3)CCO[C@@H]2C1`, the cytotoxicity at 70.5 h is -0.955%. Turning to `CSCCC(NC(N)=O)C(=O)N1CCC(Cc2ccccc2)CC1` (configuration not stated), the cytotoxicity at 70.5 h was -3.12%. Regarding `Cc1ccc(O)c(C(=O)N2CCCC2c2nncn2CC(C)C)c1` (configuration not stated), the cytotoxicity at 70.5 h was -0.402%. As for `CNc1nc(C)cc(N2CCC(C(=O)O)(n3ccc(C(C)C)n3)CC2)n1`, the cytotoxicity at 70.5 h is -4.47%. With `Cc1cnn(CC2CN(CCCS(=O)(=O)N(C)C)CCO2)c1` (configuration not stated), the cytotoxicity at 70.5 h is -10.7%. `COCc1ncc(CN2CCC3(CCNCC3)CC2)cn1`: the cytotoxicity at 70.5 h was -2.36%. In the case of `O=C(Nc1nccs1)C1CCCN1Cc1ccccn1` (configuration not stated), the cytotoxicity at 70.5 h was -5.74%.

For the compound `O=C(NCc1ccccn1)[C@@H]1CCO[C@@H]2CCN(Cc3ccoc3)C[C@H]21`, the cytotoxicity at 70.5 h is -1.45%. Consider `O=S(=O)(NCCNc1ccc(-n2cccc2)nn1)c1ccccc1`, for which the cytotoxicity at 70.5 h was -5.01%.

Consider `CCc1n[nH]c(C(=O)N2CCC3(CCCN(CCOC)C3=O)C2)c1C` (configuration not stated), for which the cytotoxicity at 70.5 h is -9.48%.

`Cc1ccc(CN2CCCC3(CCCN3S(C)(=O)=O)C2)s1` (configuration not stated): the cytotoxicity at 70.5 h is -8%. With `CCCN1CCCN(C(=O)c2ccc(Oc3cccnc3)cc2)CC1`, the cytotoxicity at 70.5 h is -8.42%. With `CC(C)c1nc2c(n1C)CCN(CC(=O)Nc1nccs1)C2`, the cytotoxicity at 70.5 h is -24.8%. `CN(C)S(=O)(=O)c1ccc(=O)n(CC2CCCCO2)c1` (configuration not stated): the cytotoxicity at 70.5 h was -12.9%. `Cn1c(CN2CCCC2)nnc1C1CCCN(C(=O)C2CCOCC2)C1` (configuration not stated): the cytotoxicity at 70.5 h was -3.01%. Regarding `COCCn1ccc(NC(=O)Nc2ccc(C)cc2)n1`, the cytotoxicity at 70.5 h was -5.81%. In the case of `Cc1ccccc1N1CC2(CCN(Cc3nccn3C)C2)CC1=O` (configuration not stated), the cytotoxicity at 70.5 h was -13.1%.

Regarding `O=C(c1cccnc1)N1CCC(c2nc(O)cc(-c3ccncc3)n2)C1` (configuration not stated), the cytotoxicity at 70.5 h was -10.5%. As for `CCc1ccc2nc(C)cc(C(=O)NC3CCCCNC3=O)c2c1` (configuration not stated), the cytotoxicity at 70.5 h was 1.7%. Turning to `CN(CCN1CCCCC1=O)Cc1cc2cc3c(cc2[nH]c1=O)OCO3`, the cytotoxicity at 70.5 h is -8.86%.

For `N#Cc1ccc(C(=O)N2CCC(c3ncc[nH]3)CC2)cn1`, the cytotoxicity at 70.5 h was -7.49%. As for `CC(C)C1CN(c2ncc(F)cn2)CCC(=O)N1Cc1ccc(F)cc1` (configuration not stated), the cytotoxicity at 70.5 h is -6.84%. In the case of `COc1ccc(CN2CCCn3cncc3C2)cc1Cn1cncn1`, the cytotoxicity at 70.5 h is -8.65%. Turning to `NC(=O)C1CCN(C(=O)NCCNc2ccccn2)CC1`, the cytotoxicity at 70.5 h is -1.19%. Take `CS(=O)(=O)CC(=O)N1C[C@H]2CCC[C@@]2(COc2ccccn2)C1`: the cytotoxicity at 70.5 h is 12.7%.

Consider `CN(C)CCCNCC1CCOC(C)(C)C1` (configuration not stated), for which the cytotoxicity at 70.5 h is -3.4%. The same measure for `Cc1nn(C)c(C)c1C1CCCN1Cc1nnc(C2CC2)n1C` (configuration not stated): -1.77%.

The record behind these values is ChEMBL document CHEMBL3507680, “University of Dundee, Gates Library screen for HepG2 cell viability”.
